These results are taken from US20250230165A1, “HETEROCYCLIC COMPOUNDS FOR USE IN THE TREATMENT OF CANCER” (ARTIOS PHARMA LIMITED, priority 2021, published 2025).

This assay has as its target T1, Human Polθ polymerase domain (aa1820-2590) (Homo sapiens, UniProt O75417).
T1 construct: Human Polθ polymerase domain (aa1820-2590) was expressed in E. coli; made in house; host or cells: E. coli
T1 sequence (O75417 1820-2590): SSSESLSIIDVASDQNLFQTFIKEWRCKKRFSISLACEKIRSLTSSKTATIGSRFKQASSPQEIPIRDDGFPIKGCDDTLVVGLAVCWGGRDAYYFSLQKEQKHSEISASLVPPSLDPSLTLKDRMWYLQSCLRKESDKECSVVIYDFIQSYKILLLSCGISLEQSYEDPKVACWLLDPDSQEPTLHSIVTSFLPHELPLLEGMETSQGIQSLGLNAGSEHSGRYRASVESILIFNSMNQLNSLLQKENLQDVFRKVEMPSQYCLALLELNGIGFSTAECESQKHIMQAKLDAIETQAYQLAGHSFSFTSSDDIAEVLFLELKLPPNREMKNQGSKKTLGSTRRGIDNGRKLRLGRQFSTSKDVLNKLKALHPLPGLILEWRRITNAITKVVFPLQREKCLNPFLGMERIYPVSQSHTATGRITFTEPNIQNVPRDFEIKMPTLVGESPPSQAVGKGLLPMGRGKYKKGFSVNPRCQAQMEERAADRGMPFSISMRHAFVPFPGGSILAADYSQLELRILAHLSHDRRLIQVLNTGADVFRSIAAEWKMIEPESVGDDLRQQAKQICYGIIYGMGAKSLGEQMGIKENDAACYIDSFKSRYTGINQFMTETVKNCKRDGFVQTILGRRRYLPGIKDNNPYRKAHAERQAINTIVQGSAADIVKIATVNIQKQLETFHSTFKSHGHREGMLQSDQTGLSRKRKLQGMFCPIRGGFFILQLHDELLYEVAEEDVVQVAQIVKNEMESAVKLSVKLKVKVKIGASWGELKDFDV
Kind of assay: Polθ Polymerase Domain Kinact/KI Assay (PicoGreen). It is filed as biochemical. Conditions: 0.8 nM Polθ, 100 nM DNA substrate, kobs vs [I] fit for 2-step covalent inhibitor. The gist of the method: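 Time-dependent inhibition was followed with 0.8 nM polymerase domain, 100 nM DNA substrate and […], reactions quenched over 60 min and quantified by PicoGreen. Kinact and KI came from a secondary plot of kobs against inhibitor concentration.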
`C/C=C(\CN(C)C)C(=O)N1CC(OCCCN2C[C@H]3CC(=O)N(c4cc(C(F)(F)F)cc(C)n4)[C@@H]3C(=O)N(C)c3cccc(C)c32)C1` [Example 194, (3aR,11aS)-5-(3-((1-((E)-2-((dimeth-ylamino)methyl)-but-2-enoyl)azeti-din-3-yl)oxy)prop-yl)-6,10-dimethyl-1-(6-methyl-4-(trifluoromethyl)-pyridin-2-yl)-1,3a,4,5,10,11a-hexahydro-2H-benzo[b]pyrrolo [2,3-f][1,4]diazo-cine-2,11(3H)-dione] returned a Kinact/Kl of 4.38e+06 M⁻¹ s⁻¹.
The figure for `C/C=C(\CN(C)C)C(=O)N1CC(c2ccc(CN3C[C@H]4CC(=O)N(c5cc(C(F)(F)F)cc(C)n5)[C@@H]4C(=O)N(C)c4cccc(C)c43)cc2)C1` [Example 195, (3aR,11aS)-5-(4-(1-((E)-2-((dimeth-ylamino)methyl)-but-2-enoyl)azeti-din-3-yl)benzyl)-6,10-dimethyl-1-(6-methyl-4-(tri-fluoromethyl)pyr-idin-2-yl)-1,3a,4,5,10,11a-hexa-hydro-2H-benzo [b]pyrrolo[2,3-f] [1,4]diazocine-2,11(3H)-dione] is 5.22e+06 M⁻¹ s⁻¹.
With `Cc1cc(C(F)(F)F)cc(N2C(=O)C[C@@H]3CN(CCCOC4CN(C(=O)C5=CCCN(C)C5)C4)c4c(C)cccc4N(C)C(=O)[C@H]32)n1` [Example 196, (3aR,11aS)-6,10-dimethyl-5-(3-((1-(1-methyl-1,2,5,6-tetrahydropyridine-3-carbonyl)azeti-din-3-yl)oxy)prop-yl)-1-(6-methyl-4-(trifluoromethyl)-pyridin-2-yl)-1,3a,4,5,10,11a-hexahydro-2H-benzo[b]pyrrolo [2,3-f][1,4]diazo-cine-2,11(3H)-dione] the figure was 2.06e+06 M⁻¹ s⁻¹.
The figure for `Cc1cc(C(F)(F)F)cc(N2C(=O)C[C@@H]3CN(CCOCC4CN(C(=O)C5=CCCN(C)C5)C4)c4c(C)cccc4N(C)C(=O)[C@H]32)n1` [Example 197, (3aR,11aS)-6,10-dimethyl-5-(2-((1-(1-methyl-1,2,5,6-tetrahydropyridine-3-carbonyl)azeti-din-3-yl)methoxy)-ethyl)-1-(6-methyl-4-(trifluoromethyl)-pyridin-2-yl)-1,3a, 4,5,10,11a-hexa-hydro-2H-benzo [b]pyrrolo[2,3-f] [1,4]diazocine-2,11(3H)-dione] is 1.67e+06 M⁻¹ s⁻¹; for `C#CC(=O)N1CCn2nc(CN3C[C@H]4CC(=O)N(c5cc(C(F)(F)F)cc(C)n5)[C@@H]4C(=O)N(C)c4cccc(C)c43)cc2C1` [Example 198, (3aR,11aS)-6,10-dimethyl-1-(6-methyl-4-(trifluoro-methyl)pyridin-2-yl)-5-((5-propiolo-yl-4,5,6,7-tetra-hydropyrazolo-[1,5-a]pyrazin-2-yl)methyl)-1,3a,4,5, 10,11a-hexahydro-2H-benzo[b]pyr-rolo[2,3-f][1,4] diazocine-2,11(3H)-dione] it is 700000 M⁻¹ s⁻¹.
`C#CC(=O)NC12CC(CN3C[C@H]4CC(=O)N(c5cc(C(F)(F)F)cc(C)n5)[C@@H]4C(=O)N(C)c4cccc(C)c43)(C1)C2` [Example 200, N-(3-(((3aR,11aS)-6,10-dimethyl-1-(6-methyl-4-(tri-fluoromethyl)pyri-din-2-yl)-2,11-dioxo-1,2,3,3a,4, 10,11,11a-octa-hydro-5H-benzo[b]pyrrolo[2,3-f][1,4]diazocin-5-yl)-methyl)bicyclo [1.1.1]pentan-1-yl)propiolamide] showed a Kinact/Kl of 690000 M⁻¹ s⁻¹.
With `CC#CC(=O)N1CCn2cc(CN3C[C@H]4CC(=O)N(c5cc(C(F)(F)F)cc(C)n5)[C@@H]4C(=O)N(C)c4cccc(C)c43)nc2C1` [Example 201, (3aR,11aS)-5-((7-(but-2-ynoyl)-5,6,7,8-tetrahydro-imidazo[1,2-a]pyr-azin-2-yl)methyl)-6,10-dimethyl-1-(6-methyl-4-(tri-fluoromethyl)pyr-idin-2-yl)-1,3a,4,5,10,11a-hexa-hydro-2H-benzo [b]pyrrolo[2,3-f] [1,4]diazocine-2,11(3H)-dione] the figure was 2.8e+06 M⁻¹ s⁻¹; with `C=CC(=O)N1CCn2nc(CN3C[C@H]4CC(=O)N(c5cc(C(F)(F)F)cc(C)n5)[C@@H]4C(=O)N(C)c4cccc(C)c43)nc2C1` [Example 202, (3aR,11aS)-5-((7-acryloyl-5,6,7,8-tetrahydro-[1,2,4]triazolo [1,5-a]pyrazin-2-yl)methyl)-6,10-dimethyl-1-(6-methyl-4-(trifluoromethyl)pyridin-2-yl)-1,3a,4,5,10,11a-hexahydro-2H-benzo[b]pyrrolo [2,3-f][1,4]diazocine-2,11(3H)-dione], 5.56e+06 M⁻¹ s⁻¹; with `C=CC(=O)N1CCn2cc(CN3C[C@H]4CC(=O)N(c5cc(C(F)(F)F)cc(C)n5)[C@@H]4C(=O)N(C)c4cccc(C)c43)nc2C1` [Example 203, (3aR,11aS)-5-((7-acryloyl-5,6,7,8-tetrahydroimidazo [1,2-a]pyrazin-2-yl)methyl)-6,10-dimethyl-1-(6-methyl-4-(trifluoromethyl)pyridin-2-yl)-1,3a,4,5,10,11a-hexahydro-2H-benzo[b]pyrrolo [2,3-f][1,4]diazocine-2,11(3H)-dione], 4.32e+06 M⁻¹ s⁻¹.
The figure for `C=CC(=O)N1CCC(n2cnc(CN3C[C@H]4CC(=O)N(c5cc(C(F)(F)F)cc(C)n5)[C@@H]4C(=O)N(C)c4cccc(C)c43)n2)CC1` [Example 204, (3aR,11aS)-5-((1-(1-acryloylpiperidin-4-yl)-1H-1,2,4-triazol-3-yl)methyl)-6,10-dimethyl-1-(6-methyl-4-(trifluoromethyl)pyridin-2-yl)-1,3a,4,5,10,11a-hexahydro-2H-benzo[b]pyrrolo [2,3-f][1,4]diazocine-2,11(3H)-dione] is 980000 M⁻¹ s⁻¹; for `C=CC(=O)N1CC(N(C)CCCN2C[C@H]3CC(=O)N(c4cc(C(F)(F)F)cc(C)n4)[C@@H]3C(=O)N(C)c3cccc(C)c32)C1` [Example 205, (3aR,11aS)-5-(3-((1-acryloylazetidin-3-yl)(methyl)amino)propyl)-6,10-dimethyl-1-(6-methyl-4-(trifluoromethyl)pyridin-2-yl)-1,3a,4,5,10,11a-hexahydro-2H-benzo[b]pyrrolo [2,3-f][1,4]diazocine-2,11(3H)-dione] it is 1.67e+06 M⁻¹ s⁻¹.
The figure for `Cc1cc(C(F)(F)F)cc(N2C(=O)C[C@@H]3CN(Cc4ccc(NC(=O)/C=C/CN(C)C)cc4)c4c(C)cccc4N(C)C(=O)[C@H]32)n1` [Example 207, (E)-N-(4-(((3aR, 11aS)-6,10-dimethyl-1-(6-methyl-4-(trifluoromethyl)pyridin-2-yl)-2,11-dioxo-1,2,3,3a,4,10,11,11a-octahydro-5H-benzo[b]pyrrolo[2,3-f][1,4]diazocin-5-yl)methyl)phenyl)-4-(dimethylamino) but-2-enamide] is 1.82e+06 M⁻¹ s⁻¹.
In the case of `COc1cc(CN2C[C@H]3CC(=O)N(c4cc(C(F)(F)F)cc(C)n4)[C@@H]3C(=O)N(C)c3cccc(C)c32)ccc1NC(=O)/C=C/CN(C)C` [Example 208, (E)-N-(4-(((3aR, 11aS)-6,10-dimethyl-1-(6-methyl-4-(trifluoromethyl)pyridin-2-yl)-2,11-dioxo-1,2,3,3a,4,10,11,11a-octahydro-5H-benzo[b]pyrrolo [2,3-f][1,4]diazocin-5-yl)methyl)-2-methoxyphenyl)-4-(dimethylamino) but-2-enamide], the Kinact/Kl was determined as 4.36e+06 M⁻¹ s⁻¹.
With `C=C(CN(C)C)C(=O)Nc1ccc(CN2C[C@H]3CC(=O)N(c4cc(C(F)(F)F)cc(C)n4)[C@@H]3C(=O)N(C)c3cccc(C)c32)cc1` [Example 209, N-(4-(((3aR,11aS)-6,10-dimethyl-1-(6-methyl-4-(trifluoromethyl)pyridin-2-yl)-2,11-dioxo-1,2,3,3a,4,10,11,11a-octahydro-5H-benzo[b]pyrrolo[2,3-f][1,4]diazocin-5-yl)methyl)phenyl)-2-((dimethylamino)methyl)acrylamide] the figure was 530000 M⁻¹ s⁻¹.
The figure for `C=C(CN(C)C)C(=O)Nc1ccc(CN2C[C@H]3CC(=O)N(c4cc(C(F)(F)F)cc(C)n4)[C@@H]3C(=O)N(C)c3cccc(C)c32)cc1OC` [Example 210, N-(4-(((3aR,11aS)-6,10-dimethyl-1-(6-methyl-4-(trifluoromethyl)pyridin-2-yl)-2,11-dioxo-1,2,3,3a,4,10,11,11a-octahydro-5H-benzo[b]pyrrolo[2,3-f][1,4]diazocin-5-yl)methyl)-2-methoxyphenyl)-2-((dimethylamino)methyl)acrylamide] is 630000 M⁻¹ s⁻¹.
